Laboratory results taken from patent US9637484B2, “Cycloalkyl acid derivative, preparation method thereof, and pharmaceutical application thereof” (Shanghai Hengrui Pharmaceutical Co., Ltd., priority 2013, dated 2017).

Experiments:
[1] = Pharmacokinetics assay in SD rats, intragastric administration, plasma by LC/MS/MS; assay type: in vivo, Sprague-Dawley (SD) rats; details: 3.0 mg/kg; for Vd/F / AUC / CL/F / half-life / MRT / Cmax: both sexes, Sprague-Dawley, rat, plasma, po; for Vd/F: read-out: Apparent Distribution Volume Vz/F; for AUC: read-out: Area Under Curve AUC; for CL/F: read-out: Clearance CL/F; for half-life: read-out: Half-Life T½ (converted); for MRT: read-out: Mean Residence Time MRT; for Cmax: read-out: Plasma Conc. Cmax
Description: Sprague-Dawley (SD) rats were used as test animals. The compounds of Example 1, Example 2 and Example 3 were administered intragastrically to rats to determine the drug concentration in plasma at different time points by a LC/MS/MS method. The pharmacokinetic behavior of the compounds of the present invention was studied and evaluated in rats.
12 Healthy adult SD rats, half male and half female, purchased from SINO-BRITSH SIPPR/BK LAB. ANIMAL LTD., CO, Certificate No.: SCXK (Shanghai) 2008-0016, were divided into three groups, with 4 rats in each group.
The appropriate amounts of test compounds were weighed and mixed with 0.5% CMC-Na to prepare a 0.3 mg/mL suspension by an ultrasonic method.
After an overnight fast, 12 SD rats, half male and half female, were divided into 3 groups, with 4 rats in each group, and administered the compounds intragastrically at a dose of 3.0 mg/kg and an administration volume of 10 mL/kg.
Blood samples (0.1 mL) were taken from the orbital sinus before administration, and at 0.5 h, 1 h, 2 h, 4 h, 6 h, 8 h, 11 h, 24 h and 48 h after administration, stored in heparinized tubes, and centrifuged for 10 minutes at 3,500 rpm to separate blood plasma. The plasma samples were stored at −20° C.
The concentration of the test compounds in rat plasma after intragastrically administering the test compounds was analyzed by a LC-MS/MS method. The linearity range of the method is 2.0-5000 ng/ml, and the lower limit of quantification is 2.00 ng/ml. Plasma samples were analyzed after protein precipitation.

hURAT1 = hURAT1 (Homo sapiens (Human), UniProt Q96S37); experiment: Assay for inhibiting URAT1: uptake of 14C-uric acid in HEK293/hURAT1 cells; assay type: cell-based; details: 14C-uric acid 11.57 μM, 12 minutes at room temperature
Description: In vitro URAT1 assay can be used to identify compounds having potential activity for decreasing serum uric acid. In a suitable test, the vectors that encode human URAT1 (URAT1 cDNA: Guangzhou Copoeia EX-T4563-M02) were used to transfect cells (human embryonic kidney cells, HEK293: Cell Bank of the Chinese Academy of Sciences, GNHu18). The transfected cells—HEK293/hURAT1 cells—were obtained, then their uptake ability of radiolabeled uric acid was determined. The activity of the compounds as URAT1 inhibitors can be evaluated by the ability of the compounds to block the uptake of uric acid in the transfected cells.
The HEK293/hURAT1 cells in Eagle's minimal essential medium (EMEM) were inoculated in a 48-well plate that was coated with poly-D-lysine (Becton Dickinson, Catalog No. 356509), with an inoculation density of 10^5 cells/well, and incubated overnight. A reaction solution containing ^14C— uric acid (American Radioactive Compound, Catalog No. ARC 0513A) with a final concentration of 11.57 μM was prepared by the use or non-use of the test compounds in Hanks balanced salt solution (HBSS). The Hanks balanced salt solution (HBSS) contained 125 mM sodium gluconate, 4.8 mM potassium gluconate, 1.2 mM potassium dihydrogen phosphate, 1.2 mM magnesium sulfate, 1.3 mM calcium gluconate, 5.6 mM glucose and 25 mM HEPES (pH 7.3). After the medium was washed with the wash buffer (125 mM sodium gluconate, 10 mM HEPES, pH 7.3) for one time, the reaction solution prepared from the above step was added to each well and incubated at room temperature for 12 minutes. Then the reaction solution was removed, the cells were washed twice with the wash buffer and lysed with 0.2 M NaOH for 5 minutes. The cell lysate was transferred to a 96-well culture plate with a scintillation fluid (PerkinElmer, Catalog No. 1450-401), and counting of radioactivity was carried out on a Microbeta counter (PerkinElmer).
The test compounds were dissolved in DMSO, then DMSO with the same concentration was added to HEK293/hURAT1 cell wells without the test compounds. Cellular uptake of uric acid under various test conditions was expressed as average percentage inhibition rates in comparison to DMSO control. Radioactive values from the wells containing DMSO were considered as 100% uptake of the cells. IC50 values were calculated from the data of the inhibition rates at various concentrations.
The above assay was used to determine the biochemical activity of the compounds of the present invention for inhibiting hURAT1.

Sequence of hURAT1 (Q96S37 whole entry): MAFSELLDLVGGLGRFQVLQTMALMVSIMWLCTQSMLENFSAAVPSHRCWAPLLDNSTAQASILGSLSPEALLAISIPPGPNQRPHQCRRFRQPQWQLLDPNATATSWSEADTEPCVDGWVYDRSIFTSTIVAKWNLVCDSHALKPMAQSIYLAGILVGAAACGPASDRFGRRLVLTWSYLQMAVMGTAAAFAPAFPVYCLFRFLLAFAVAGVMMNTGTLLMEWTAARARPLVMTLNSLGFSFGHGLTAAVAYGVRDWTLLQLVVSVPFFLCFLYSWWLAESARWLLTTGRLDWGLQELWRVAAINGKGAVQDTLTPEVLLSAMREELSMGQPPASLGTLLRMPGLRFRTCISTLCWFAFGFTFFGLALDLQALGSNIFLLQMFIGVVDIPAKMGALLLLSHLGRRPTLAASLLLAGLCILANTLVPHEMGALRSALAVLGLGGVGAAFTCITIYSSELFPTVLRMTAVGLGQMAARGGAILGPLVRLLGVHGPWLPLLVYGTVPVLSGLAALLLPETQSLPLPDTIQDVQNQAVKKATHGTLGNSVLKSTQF

| SMILES | IC50 (hURAT1) | also measured |
| --- | --- | --- |
| O=C(O)C1(Sc2ccnc3ccccc23)CCC1 [Example 1, 1-(quinolin-4-ylthio)cyclobutanecarboxylic acid] | 251 nM | Vd/F [1]: 0.652 ± 0.333 L/kg; AUC [1]: 20700 ± 5270 ng·h/mL; CL/F [1]: 2.54 ± 0.68 mL/min/kg; half-life [1]: 170 ± 39 min; MRT [1]: 3.15 ± 0.82 h; Cmax [1]: 8800 ± 1760 ng/mL |
| O=C(O)C1(Sc2ccnc3ccc(C(F)(F)F)cc23)CCC1 [Example 2, 1-((6-(trifluoromethyl)quinolin-4-yl)thio)cyclobutanecarboxylic acid] | 61 nM | Mean Residence Time MRT [1]: 12.9 ± 5.8 h; Vd/F [1]: 1.21 ± 0.674 L/kg; AUC [1]: 38200 ± 25100 ng·h/mL; CL/F [1]: 1.95 ± 1.31 mL/min/kg; half-life [1]: 530 ± 242 min; Cmax [1]: 2710 ± 919 ng/mL |
| O=C(O)C1(Sc2ccnc3ccc(Br)cc23)CCC1 [Example 3, 1-((6-bromoquinolin-4-yl)thio)cyclobutanecarboxylic acid] | 19 nM | Vd/F [1]: 0.878 ± 0.335 L/kg; AUC [1]: 28400 ± 8540 ng·h/mL; CL/F [1]: 1.89 ± 0.59 mL/min/kg; half-life [1]: 321 ± 67.2 min; MRT [1]: 8.15 ± 1.3 h; Cmax [1]: 3470 ± 854 ng/mL |
| COc1ccc2nccc(SC3(C(=O)O)CCC3)c2c1 [Example 4, 1-((6-methoxyquinolin-4-yl)thio)cyclobutanecarboxylic acid] | 343 nM |  |
| COCCOc1ccc2nccc(SC3(C(=O)O)CCC3)c2c1 [Example 5, 1-((6-(2-methoxyethoxy)quinolin-4-yl)thio)cyclobutanecarboxylic acid] | 207 nM |  |
| O=C(O)C1(Sc2ccnc3ccc(-c4cccc(F)c4)cc23)CCC1 [Example 6, 1-((6-(3-fluorophenyl)quinolin-4-yl)thio)cyclobutanecarboxylic acid] | 332 nM |  |
| O=C(O)C1(Sc2ccnc3ccc(-c4ccc(F)cc4)cc23)CCC1 [Example 7, 1-((6-(4-fluorophenyl)quinolin-4-yl)thio)cyclobutanecarboxylic acid] | 159 nM |  |
| O=C(O)C1(Sc2ccnc3ccc(-c4cccc(C(F)(F)F)c4)cc23)CCC1 [Example 8, 1-((6-(3-(trifluoromethyl)phenyl)quinolin-4-yl)thio)cyclobutanecarboxylic acid] | 359 nM |  |
| COCc1ccc2nccc(SC3(C(=O)O)CCC3)c2c1 [Example 9, 1-((6-(methoxymethyl)quinolin-4-yl)thio)cyclobutanecarboxylic acid] | 197 nM |  |
| N#Cc1ccc(SC2(C(=O)O)CCC2)c2ccccc12 [Example 10, 1-((4-cyanonaphthalen-1-yl)thio)cyclobutanecarboxylic acid] | 926 nM |  |
| O=C(O)C1(Sc2ccnc3ccc(F)cc23)CCC1 [Example 12, 1-((6-fluoroquinolin-4-yl)thio)cyclobutanecarboxylic acid] | 557 nM |  |
| COC(=O)COc1ccc2nccc(SC3(C(=O)O)CCC3)c2c1 [Example 13, 1-((6-(2-methoxy-2-oxoethoxy)quinolin-4-yl)thio)cyclobutanecarboxylic acid] | 164 nM |  |
| N#Cc1ccc2nccc(SC3(C(=O)O)CCC3)c2c1 [Example 17, 1-((6-cyanoquinolin-4-yl)thio)cyclobutanecarboxylic acid] | 398 nM |  |

Further lines, with some results ahead:

| IC50 (hURAT1) | SMILES | also measured |
| --- | --- | --- |
| 115 nM | O=C(O)C1(Sc2ccnc3ccc(-c4ccccc4C(F)(F)F)cc23)CCC1 [Example 22, 1-((6-(2-(trifluoromethyl)phenyl)quinolin-4-yl)thio)cyclobutanecarboxylic acid] |  |
| 658 nM | O=C(O)C1(Sc2ccnc3ccc(C4CC4)cc23)CCC1 [Example 23, 1-((6-cyclopropylquinolin-4-yl)thio)cyclobutanecarboxylic acid] |  |
| 680 nM | N#CCOc1ccc2nccc(SC3(C(=O)O)CCC3)c2c1 [Example 24, 1-((6-(cyanomethoxy)quinolin-4-yl)thio)cyclobutanecarboxylic acid] |  |
| 343 nM | Cc1ccc2nccc(SC3(C(=O)O)CCC3)c2c1 [Example 30, 1-((6-methylquinolin-4-yl)thio)cyclobutanecarboxylic acid] |  |
| 129 nM | O=C(O)C1(Sc2ccnc3cc(Br)ccc23)CCC1 [Example 31, 1-((7-bromoquinolin-4-yl)thio)cyclobutanecarboxylic acid] |  |
| 352 nM | O=C(O)C1(Sc2ccnc3ccc(Br)cc23)CCCC1 [Example 32, 1-((6-bromoquinolin-4-yl)thio)cyclopentanecarboxylic acid] |  |
| 324 nM | O=C(O)C1(Sc2ccnc3ccc(Br)cc23)CC1 [Example 33, 1-((6-bromoquinolin-4-yl)thio)cyclopropanecarboxylic acid] |  |
